Source: patent publication US11065264B2, “Metal-olsalazine coordination polymers for medical applications” (THE REGENTS OF THE UNIVERSITY OF CALIFORNIA, priority 2016, dated 2021)

Tests used:
[1] = Olsalazine release from pressed pellets under simulated gastrointestinal conditions; format: physicochemical
Procedure: To evaluate the potential utility of Ca(H2olz).xH2O coordination solids in the treatment of ulcerative colitis (x=4, 2, and 0 for 1D, 2D, and 3D materials, respectively), each material was tested for drug release in comparison with Na2(H2olz), which is the salt used in the commercial formulation (available as Dipentum®). Each material was pressed into a pellet and exposed to solutions that mimic the pH of the stomach, small intestine, and colon. The pH and composition of the release medium was changed by addition of buffers in accordance to the expected transit times of a pill through the gastrointestinal tract: the first two hours were held at pH 1.1, the next two hours at pH 6.0, and the final six hours at pH 7.3. The vessels containing the pellet in release media were shaken at 60 rpm at 37° C. to simulate the motion and temperature of the body.
Sample pellets were prepared from pure material without binders or other agents typically used for pill preparation in the pharmaceutical industry. This was done in order to probe the properties of each material without influence from any excipients. Due to this method of preparation, however, pellets were susceptible to disintegration, which can accelerate the observed dissolution rates. […] The variability in pellet integrity likely contributed to the large observed standard deviation.
FIG. 3 is a graph of the release of olsalazine from Na2(H2olz) (circles) and Ca(H2olz).xH2O materials under simulated gastrointestinal conditions (x=4, 2, 0, denoted by squares, triangles, and diamonds, respectively). Error bars represent standard deviation across three independent data sets, where the quantity of olsalazine in solution was measured spectroscopically (λ=360 nm). The release media were changed throughout the study to emulate the typical pH and transit times of a pill passing through the stomach (pH 1.1, 2 h), small intestine (pH 6.0, 2 h), and colon (pH 7.3, 6 h).

[2] = Content of active pharmaceutical ingredient by weight; format: physicochemical
[3] = treatment of ulcerative colitis; cited from earlier work

- amount of drug (olsalazine) released at the four-hour time point ([1]; pellet without excipients, pH 1.1 2 h then pH 6.0 2 h, 37° C., 60 rpm, absorbance 360 nm): over 90%
- pellet disintegration in contact with the release solution ([1]; pellets of pure material without binders): partially disintegrated
- rate of olsalazine release/dissolution, Na2(H2olz) compared with Ca(H2olz) materials ([1]; simulated gastrointestinal environment, pH 6.0 and above): dissolved more rapidly
- percentage of the active pharmaceutical ingredient (olsalazine) by weight [2]: 79%
SMILES: O=C(O)c1cc(/N=N/c2ccc(O)c(C(=O)O)c2)ccc1O [Na2(H2olz), olsalazine disodium]
- patients discontinuing treatment because of diarrhea [3]: over 10%
- patients experiencing diarrhea as a side effect [3]: ≤ 35%
